In patent US20130345214A1, “Lipoxygenase Inhibitors” (SRI International, Inc., priority 2011, published 2013):
Like-named read-outs stand apart in the source and are kept apart here.

Legend:
15-LOX-2 = biological target: T1, 15-LOX-2 (Homo sapiens, UniProt O15296); assay: in vitro 15-LOX-2 inhibition (Table 3); assay type: biochemical
T1 sequence (O15296 1-676): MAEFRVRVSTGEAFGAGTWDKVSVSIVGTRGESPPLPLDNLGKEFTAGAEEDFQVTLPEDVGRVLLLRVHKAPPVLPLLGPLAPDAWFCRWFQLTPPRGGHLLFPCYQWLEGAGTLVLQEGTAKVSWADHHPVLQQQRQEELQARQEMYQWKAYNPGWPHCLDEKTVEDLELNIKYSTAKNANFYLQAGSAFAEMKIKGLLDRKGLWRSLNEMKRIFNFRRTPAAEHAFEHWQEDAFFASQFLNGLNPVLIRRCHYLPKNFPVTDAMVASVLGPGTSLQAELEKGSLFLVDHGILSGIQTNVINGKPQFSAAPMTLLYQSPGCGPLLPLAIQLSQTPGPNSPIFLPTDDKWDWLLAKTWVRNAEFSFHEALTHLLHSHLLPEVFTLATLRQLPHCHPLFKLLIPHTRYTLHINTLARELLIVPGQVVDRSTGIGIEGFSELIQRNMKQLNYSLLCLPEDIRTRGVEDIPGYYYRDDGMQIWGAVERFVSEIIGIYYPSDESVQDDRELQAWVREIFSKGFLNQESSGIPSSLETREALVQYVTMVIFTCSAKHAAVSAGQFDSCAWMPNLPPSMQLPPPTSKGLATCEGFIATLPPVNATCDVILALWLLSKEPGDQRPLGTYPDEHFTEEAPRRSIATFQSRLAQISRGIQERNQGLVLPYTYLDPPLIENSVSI
Description: (§1) Table 3 provides results for exemplary subject bisindole compounds on 5-LOX, 12-LOX and 15-LOX.

5-LOX = biological target: T2, 5-LOX (Homo sapiens, UniProt P09917); assay: fluorescence-based enzyme assay of human 5-LOX (Table 3); assay type: biochemical
T2 sequence (P09917 1-674): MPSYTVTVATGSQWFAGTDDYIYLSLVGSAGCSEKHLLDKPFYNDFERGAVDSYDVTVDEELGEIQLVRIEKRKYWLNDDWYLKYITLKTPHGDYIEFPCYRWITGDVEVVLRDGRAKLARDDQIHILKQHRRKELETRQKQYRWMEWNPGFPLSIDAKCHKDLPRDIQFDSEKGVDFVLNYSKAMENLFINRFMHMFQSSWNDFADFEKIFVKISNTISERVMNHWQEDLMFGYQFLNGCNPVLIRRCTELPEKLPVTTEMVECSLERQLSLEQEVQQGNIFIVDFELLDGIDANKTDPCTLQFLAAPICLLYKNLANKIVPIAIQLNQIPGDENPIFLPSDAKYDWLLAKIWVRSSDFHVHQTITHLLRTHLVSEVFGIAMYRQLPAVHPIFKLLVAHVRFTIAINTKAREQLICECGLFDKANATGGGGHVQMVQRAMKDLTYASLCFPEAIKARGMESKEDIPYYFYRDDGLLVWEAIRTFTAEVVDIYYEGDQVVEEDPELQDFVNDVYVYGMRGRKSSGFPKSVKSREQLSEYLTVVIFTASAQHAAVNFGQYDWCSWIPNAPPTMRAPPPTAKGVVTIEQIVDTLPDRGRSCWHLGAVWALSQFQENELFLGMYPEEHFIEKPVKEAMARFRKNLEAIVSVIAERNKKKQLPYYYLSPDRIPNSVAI
Description: as §1

human 12-LOX = biological target: T3, human 12-LOX (Homo sapiens, UniProt P18054); assay: colorimetric platelet 12-LOX activity assay (ferric oxidation of xylenol orange, human blood platelets); assay type: cell-based
T3 construct: ferric oxidation of xylenol orange from arachidonic acid in human blood platelets; endogenous in cells; host or cells: human blood platelets
T3 sequence (P18054 1-663): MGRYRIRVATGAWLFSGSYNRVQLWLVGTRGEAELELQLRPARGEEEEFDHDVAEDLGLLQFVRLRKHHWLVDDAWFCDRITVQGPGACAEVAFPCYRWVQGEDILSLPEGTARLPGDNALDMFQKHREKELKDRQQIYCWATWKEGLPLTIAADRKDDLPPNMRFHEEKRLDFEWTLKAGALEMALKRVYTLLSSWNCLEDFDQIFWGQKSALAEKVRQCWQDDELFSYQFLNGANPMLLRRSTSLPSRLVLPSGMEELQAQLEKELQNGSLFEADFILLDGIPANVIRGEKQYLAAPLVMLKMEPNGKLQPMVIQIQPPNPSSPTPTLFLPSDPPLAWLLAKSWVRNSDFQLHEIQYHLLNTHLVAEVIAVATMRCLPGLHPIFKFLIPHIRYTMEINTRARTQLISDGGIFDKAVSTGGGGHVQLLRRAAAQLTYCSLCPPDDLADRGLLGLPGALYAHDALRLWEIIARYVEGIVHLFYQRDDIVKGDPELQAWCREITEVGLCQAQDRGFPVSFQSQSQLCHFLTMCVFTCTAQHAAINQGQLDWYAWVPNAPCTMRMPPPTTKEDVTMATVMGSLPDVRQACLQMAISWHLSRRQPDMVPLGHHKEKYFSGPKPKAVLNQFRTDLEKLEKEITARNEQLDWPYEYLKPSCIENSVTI
Description: as §1

[1] = tested on: amyloid-beta (Abeta) formation; assay: secreted Abeta40/Abeta42 ELISA in N2A-APPswe cells; assay type: cell-based; settings: Mus musculus, 24 hours treatment
Description: A neuronal cell-based screening assay capable of sensitive and selective detection of secreted Aβ40 and Aβ42 was established. Mouse neuro-2A neuroblastoma (N2A) cells were co-transfected with pSV2neo selection plasmid and a human APP gene carrying the K670N/M671L Swedish mutations (APPswe) that are known to cause early-onset AD. The transfected cells were selected in G418-containing medium, and single colonies were analyzed for the expression of APPswe. The resulting stable cell line, N2A-APPswe, provides a platform for screening inhibitors that alter Aβ formation from the human APPswe gene. Levels of secreted Aβ40 and Aβ42 in the medium can be quantified by ELISA kits. Table 4 provides results for exemplary subject bisindole compounds on amyloid-beta (Abeta) formation at 5 μM after 24 hours treatment in N2A-APPswe cells.

[2] = read-out: Abeta 40 formation (% of control)
[3] = read-out: Abeta 42 formation (% of control)

Row | inhibition at 3 µM (15-LOX-2) [%] | inhibition at 3 µM (5-LOX; 3 μM) [%] | inhibition at 3 µM (human 12-LOX; 3 μM) [%] | Compound | activity at 5 µM [1, 2] [%] | activity at 5 µM [1, 3] [%] | also measured
1 | 55 | 92 | 88 | Fc1ccc2[nH]c3c(OC[C@@H]4CCCN4)c4[nH]c5ccc(F)cc5c4cc3c2c1 | – | – | –
2 | 45 | 91 | 80 | Fc1ccc2[nH]c3c(OC[C@H]4CCCN4)c4[nH]c5ccc(F)cc5c4c(Cl)c3c2c1 | – | – | –
3 | – | – | – | Cl.Fc1ccc2[nH]c3c(OCC4CCCN4)c4[nH]c5ccc(F)cc5c4cc3c2c1 (centres unmarked) | – | – | 15-LOX-2 % Inhibition at 3 μM (15-LOX-2; 3 µM): 63%; 5-LOX % Inhibition at 3 μM (5-LOX; 3 μM): 95%; 12-LOX % Inhibition at 3 μM (human 12-LOX; 3 μM): 77%
4 | 16 | 52 | 76 | Cc1c2[nH]c3ccccc3c2cc2c1[nH]c1ccccc12 | – | – | –
5 | – | – | – | CCN(CC)CCOC(=O)c1ccc2[nH]c3c(OC)c4[nH]c5ccc(C(=O)OCCN(CC)CC)cc5c4cc3c2c1 | – | – | inhibition at 10 µM (5-LOX; 10 μM (footnote *)): 80%; inhibition at 10 µM (human 12-LOX; 10 μM (footnote *)): 12%
6 | – | – | – | Fc1ccc2[nH]c3c(OCC4CCCN4)c4[nH]c5ccc(F)cc5c4c(Cl)c3c2c1 (centres unmarked) | 86 | 62 | –
7 | – | – | – | Fc1ccc2[nH]c3c(OCCN4CC[C@H](F)C4)c4[nH]c5ccc(F)cc5c4cc3c2c1 | 75 | 35 | –
8 | – | – | – | Fc1ccc2[nH]c3c(OCC4CCCO4)c4[nH]c5ccc(F)cc5c4cc3c2c1 (centres unmarked) | 74 | 42 | –
9 | – | – | – | Fc1ccc2[nH]c3c(OCCn4cncn4)c4[nH]c5ccc(F)cc5c4cc3c2c1 | 53 | 30 | –
10 | – | – | – | COc1c2[nH]c3ccc(F)cc3c2c(N2CCOCC2)c2c1[nH]c1ccc(F)cc12 | 77 | 43 | –
11 | – | – | – | Fc1ccc2[nH]c3c(C(F)(F)F)c4[nH]c5ccc(F)cc5c4cc3c2c1 | 81 | 47 | –
12 | – | – | – | Fc1ccc2[nH]c3c(OCCN4CCCCC4)c4[nH]c5ccc(F)cc5c4cc3c2c1 | 82 | 19 | –
13 | – | – | – | Cc1nnn(CCOc2c3[nH]c4ccc(F)cc4c3cc3c2[nH]c2ccc(F)cc23)n1 | 66 | 36 | –
14 | – | – | – | Cc1nnnn1CCOc1c2[nH]c3ccc(F)cc3c2cc2c1[nH]c1ccc(F)cc12 | 66 | 36 | –
15 | – | – | – | F[C@@H]1CN[C@H](COc2c3[nH]c4ccc(Cl)cc4c3cc3c2[nH]c2ccc(Cl)cc23)C1 | 59 | 3 | –
16 | – | – | – | c1ccc2c(c1)[nH]c1c(OCCCN3CCOCC3)c3[nH]c4ccccc4c3cc12 | 95 | 25 | –
17 | – | – | – | N=C(N)NCCCOc1c2[nH]c3ccc(Cl)cc3c2cc2c1[nH]c1ccc(Cl)cc12 | 77 | 8 | –
18 | 46 | 90 | 78 | CN(C)CCOc1c2[nH]c3ccc(F)cc3c2cc2c1[nH]c1ccc(F)cc12 [drawing 7] | – | – | –
19 | 25 | 85 | 89 | Clc1ccc2[nH]c3c(OCCCn4cncn4)c4[nH]c5ccc(Cl)cc5c4cc3c2c1 [drawing 8] | – | – | –

Row | inhibition at 3 µM (15-LOX-2) [%] | inhibition at 3 µM (5-LOX; 3 μM) [%] | inhibition at 3 µM (human 12-LOX; 3 μM) [%] | Compound | activity at 5 µM [1, 2] [%] | activity at 5 µM [1, 3] [%] | also measured
20 | 19 | 70 | 77 | Nc1nnn(CCOc2c3[nH]c4ccc(Cl)cc4c3cc3c2[nH]c2ccc(Cl)cc23)n1 [drawing 9] | – | – | –
21 | 24 | 85 | 73 | Nc1nnnn1CCOc1c2[nH]c3ccc(Cl)cc3c2cc2c1[nH]c1ccc(Cl)cc12 [drawing 10] | – | – | –
22 | 66 | 95 | 79 | N=C(N)NCCCOc1c2[nH]c3ccc(F)cc3c2cc2c1[nH]c1ccc(F)cc12 [drawing 11] | – | – | –
23 | 51 | 86 | 80 | Fc1ccc2[nH]c3c(OC4CCNC4)c4[nH]c5ccc(F)cc5c4cc3c2c1 (centres unmarked) [drawing 12] | – | – | –
24 | 43 | 79 | 79 | Clc1ccc2[nH]c3c(OCC4CCCN4)c4[nH]c5ccc(Cl)cc5c4cc3c2c1 (centres unmarked) [drawing 13] | – | – | –
25 | 61 | 94 | 78 | Fc1ccc2[nH]c3c(OCC4CCCN4)c4[nH]c5ccc(F)cc5c4cc3c2c1 (centres unmarked) [drawing 14] | – | – | –
26 | 17 | 77 | 77 | Fc1ccc2[nH]c3c(OCC4CCCN4)c4[nH]c5ccc(F)cc5c4c(C(F)(F)F)c3c2c1 (centres unmarked) [drawing 17] | – | – | –
27 | – | – | – | CN(C)CCOc1c2[nH]c3ccc(F)cc3c2cc2c1[nH]c1ccc(F)cc12 [drawing 24] | 79 | 76 | –
28 | – | – | – | Clc1ccc2[nH]c3c(OCCCn4cncn4)c4[nH]c5ccc(Cl)cc5c4cc3c2c1 [drawing 25] | 66 | 54 | –
29 | – | – | – | Nc1nnn(CCOc2c3[nH]c4ccc(Cl)cc4c3cc3c2[nH]c2ccc(Cl)cc23)n1 [drawing 26] | 86 | 75 | –
30 | – | – | – | Nc1nnnn1CCOc1c2[nH]c3ccc(Cl)cc3c2cc2c1[nH]c1ccc(Cl)cc12 [drawing 27] | 81 | 71 | –
31 | – | – | – | N=C(N)NCCCOc1c2[nH]c3ccc(F)cc3c2cc2c1[nH]c1ccc(F)cc12 [drawing 28] | 82 | 58 | –
32 | – | – | – | Fc1ccc2[nH]c3c(OC4CCNC4)c4[nH]c5ccc(F)cc5c4cc3c2c1 (centres unmarked) [drawing 29] | 71 | 9 | –
33 | – | – | – | Clc1ccc2[nH]c3c(OCC4CCCN4)c4[nH]c5ccc(Cl)cc5c4cc3c2c1 (centres unmarked) [drawing 30] | 69 | 59 | –
34 | – | – | – | Fc1ccc2[nH]c3c(OCC4CCCN4)c4[nH]c5ccc(F)cc5c4c(C(F)(F)F)c3c2c1 (centres unmarked) [drawing 32] | 89 | 69 | –
35 | – | – | – | CN(C)CCOc1c2[nH]c3ccc(F)cc3c2c(Cl)c2c1[nH]c1ccc(F)cc12 [drawing 33] | 68 | 55 | –
36 | – | – | – | Fc1ccc2[nH]c3c(OC[C@@H]4C[C@H](F)CN4)c4[nH]c5ccc(F)cc5c4cc3c2c1 [drawing 34] | 93 | 67 | –
37 | – | – | – | CCOC(=O)c1ccc2[nH]c3c(O[C@H]4CCNC4)c4[nH]c5ccc(C(=O)OCC)cc5c4cc3c2c1 [drawing 35] | 70 | 48 | –
38 | – | – | – | Fc1ccc2[nH]c3c(OCC4CCCN4)c4[nH]c5ccc(F)cc5c4cc3c2c1 (centres unmarked) [drawing 36] | 65 | 52 | –
